Laboratory results from the supplement of paper PMC10307832.

Experiments:
Experiment in all cases: relative viability (nuclei count vs DMSO), 5 days (fraction); higher = more cells survive
[1] = compound: O=c1[nH]cc(F)c(=O)[nH]1 [5-Fluorouracil] + C[C@@H](Oc1cc(-c2cnn(C3CCNCC3)c2)cnc1N)c1c(Cl)ccc(F)c1Cl [Crizotinib] (partner 1 µM)
Procedure, shortened: (§1)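 Lung cancer cell lines were seeded in 1536-well plates and dosed by pin tool the next day, with either a single drug or a fixed anchor-drug dose combined with five library-drug doses (not always all listed) spaced in √10 steps. Five days later, one step fixed the cells and stained their nuclei (final 0.05% Triton X-100, 1% formaldehyde, 1 ug/ml Hoechst), and nuclei were counted on 4× images. Relative viability is the nuclei count in treated wells divided by the count in vehicle wells, and each value is the median of duplicate plates.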

5-Fluorouracil + OSI-027 = compound: O=c1[nH]cc(F)c(=O)[nH]1 [5-Fluorouracil] + COc1cccc2cc(-c3nc([C@H]4CC[C@H](C(=O)O)CC4)n4ncnc(N)c34)[nH]c12 [OSI-027] (partner 0.5 µM)
Procedure, shortened: as §1

Sulindac + Vorinostat = compound: CC1=C(CC(=O)O)c2cc(F)ccc2/C1=C\c1ccc([S+](C)[O-])cc1 [Sulindac] + O=C(CCCCCCC(=O)Nc1ccccc1)NO [Vorinostat] (partner 1 µM)
Procedure, shortened: as §1

| Cell Line | relative viability ([1]; first compound 0.02 µM) | relative viability ([1]; first compound 0.2 µM) | relative viability ([1]; first compound 0.6325 µM) | relative viability ([1]; first compound 2 µM) | relative viability (5-Fluorouracil + OSI-027; first compound 0.02 µM) | relative viability (5-Fluorouracil + OSI-027; first compound 0.2 µM) | relative viability (5-Fluorouracil + OSI-027; first compound 0.6325 µM) | relative viability (5-Fluorouracil + OSI-027; first compound 2 µM) | relative viability (Sulindac + Vorinostat; first compound 0.08 µM) | relative viability (Sulindac + Vorinostat; first compound 0.253 µM) | relative viability (Sulindac + Vorinostat; first compound 0.8 µM) | relative viability (Sulindac + Vorinostat; first compound 2.53 µM) | relative viability (Sulindac + Vorinostat; first compound 8 µM) |
| --- | --- | --- | --- | --- | --- | --- | --- | --- | --- | --- | --- | --- | --- |
| CAL-12T | 0.802 | 0.592 | 0.444 | 0.312 | 0.771 | 0.625 | 0.385 | 0.352 | 0.783 | 0.858 | 0.671 | 0.821 | 1.07 |
| PC-3 [JPC-3] | 0.989 | 0.996 | 0.882 | 0.676 | 0.824 | 0.805 | 0.726 | 0.625 | 0.839 | 0.786 | 0.647 | 0.778 | 0.967 |
| NCI-H23 | 0.613 | 0.619 | 0.415 | 0.305 | 0.618 | 0.56 | 0.388 | 0.252 | 0.577 | 0.684 | 0.607 | 0.38 | 0.702 |
| NCI-H838 | 0.873 | 0.809 | 0.498 | 0.297 | 0.42 | 0.373 | 0.252 | 0.209 | 0.736 | 0.777 | 0.762 | 0.726 | 0.713 |
| HCC-366 | 0.71 | 0.531 | 0.224 | 0.0745 | 1.18 | 0.868 | 0.439 | 0.144 | 0.365 | 0.333 |  | 0.351 | 0.416 |
| NCI-H1666 | 0.94 | 0.406 | 0.366 | 0.344 | 0.869 | 0.551 | 0.488 | 0.508 | 0.981 | 1.06 | 0.867 | 0.891 | 1.1 |
| HCC-44 | 0.848 | 0.768 | 0.578 | 0.324 | 0.664 | 0.479 | 0.483 | 0.31 | 1.14 | 1.1 | 1.14 | 1.1 | 1.1 |
| A-427 | 0.799 | 0.965 | 0.77 | 0.378 | 0.461 | 0.557 | 0.359 | 0.259 | 0.829 | 0.84 | 0.953 | 0.84 | 0.995 |
| NCI-H460 | 1 | 0.44 | 0.186 | 0.0322 | 0.803 | 0.35 | 0.0996 | 0.0548 | 1.35 | 0.614 | 0.623 | 0.994 | 0.795 |
| NCI-H441 | 0.511 | 0.767 | 0.388 | 0.333 | 0.779 | 0.523 | 0.322 | 0.326 | 1.02 | 0.936 | 0.599 | 0.782 | 0.981 |
| ABC-1 | 1.17 | 1.05 | 0.967 | 0.871 | 0.453 | 0.518 | 0.53 | 0.261 | 1.01 | 1.27 | 1.14 | 0.74 | 1.09 |
| LK-2 | 0.246 |  | 0.21 | 0.221 | 0.196 | 0.188 | 0.199 | 0.165 | 0.292 | 0.258 | 0.234 | 0.289 | 0.228 |
| NCI-H2085 | 0.962 | 1.01 | 0.756 | 0.636 | 0.69 | 0.676 | 0.771 | 0.502 | 0.728 | 0.814 | 0.77 | 0.652 | 0.818 |
| NCI-H650 | 0.61 | 0.589 | 0.46 | 0.421 | 0.493 | 0.357 | 0.362 | 0.267 | 0.506 | 0.429 | 0.334 | 0.379 | 0.579 |
| SK-MES-1 | 1.01 | 0.743 | 0.368 | 0.319 | 0.577 | 0.367 | 0.253 | 0.196 | 1.43 | 1.25 | 1.09 | 1.23 | 1.16 |
| NCI-H3122 | 0.252 | 0.274 | 0.232 | 0.215 | 1.04 | 0.871 | 0.349 |  | 0.98 | 0.752 | 0.762 | 0.964 | 1.13 |
| LCLC-103H | 1.1 | 1.11 | 0.883 | 0.566 | 0.503 | 0.59 | 0.379 | 0.311 | 0.872 | 0.773 | 0.729 | 0.72 | 0.799 |
| NCI-H596 | 0.971 | 0.788 | 0.64 | 0.578 | 0.832 | 0.82 | 0.623 | 0.337 | 0.589 | 0.606 |  | 0.578 | 0.612 |
| NCI-H358 | 0.965 | 0.664 | 0.671 | 0.282 | 0.819 | 0.888 | 0.508 | 0.289 | 0.842 | 0.722 | 0.601 | 0.669 | 0.897 |
| NCI-H1755 | 0.838 | 0.655 | 0.313 | 0.258 | 0.703 | 0.702 | 0.389 | 0.264 | 0.751 | 0.772 | 0.754 | 0.77 | 0.753 |
| EPLC-272H | 0.841 | 0.614 | 0.346 | 0.228 | 0.272 | 0.257 | 0.263 | 0.212 | 0.465 | 0.341 | 0.68 | 0.339 | 0.424 |
| NCI-H2228 | 0.441 | 0.483 | 0.457 | 0.343 | 0.404 | 0.55 | 0.332 | 0.329 | 0.588 | 0.831 | 0.497 | 0.981 | 0.865 |
